Consider 13 compounds from PubChem BioAssay AID328 (DTP/NCI, 2004).

Several values for one entry are separate records, joined by “and”; a condition that tells them apart may be missing. Identical values can stand only once. Toxic doses and inconclusive results are not listed.

The test deals with BDF1 mice, P388 leukemia ip, median survival T/C. Briefly: NCI In Vivo Anticancer Drug Screen. Data for tumor model P388 Leukemia (intraperitoneal) in B6D2F1 (BDF1) mice. The settings on record: endpoint: median survival time, higher = longer survival. The procedure, abridged: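 In tumour-bearing mice, survival after compound treatment is set against the vehicle group and given as a quotient.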

[1] abbreviates: dose: 25.0 mg/kg/injection, schedule: Q04DX003 (ip), vehicle: Klucel (hydroxypropylcellulose) (HPC).
[2] abbreviates: dose: 50.0 mg/kg/injection, schedule: Q04DX003 (ip), vehicle: Klucel (hydroxypropylcellulose) (HPC).
[3] abbreviates: dose: 100.0 mg/kg/injection, schedule: Q04DX003 (ip), vehicle: Klucel (hydroxypropylcellulose) (HPC).
Where [4] appears, read: dose: 200.0 mg/kg/injection, schedule: Q04DX003 (ip), vehicle: Klucel (hydroxypropylcellulose) (HPC).
Where [5] appears, read: dose: 400.0 mg/kg/injection, schedule: Q04DX003 (ip), vehicle: Klucel (hydroxypropylcellulose) (HPC).
Setting [6] is: dose: 100.0 mg/kg/injection, schedule: Q04DX003 (ip), vehicle: saline.
[7] abbreviates: dose: 400.0 mg/kg/injection, schedule: Q04DX003 (ip), vehicle: saline.
Where [8] appears, read: dose: 12.5 mg/kg/injection, schedule: Q04DX003 (ip), vehicle: Klucel (hydroxypropylcellulose) (HPC).
Where [9] appears, read: dose: 12.5 mg/kg/injection, schedule: Q01DX009 (ip), vehicle: Klucel (hydroxypropylcellulose) (HPC).
[10] abbreviates: dose: 25.0 mg/kg/injection, schedule: Q01DX009 (ip), vehicle: Klucel (hydroxypropylcellulose) (HPC).
Where [11] appears, read: dose: 50.0 mg/kg/injection, schedule: Q01DX009 (ip), vehicle: Klucel (hydroxypropylcellulose) (HPC).
[12] abbreviates: dose: 100.0 mg/kg/injection, schedule: Q01DX009 (ip), vehicle: Klucel (hydroxypropylcellulose) (HPC).

On to `COc1cccc2c1C(=O)c1c(OC)cccc1C2=O`, for which the T/C reads like this: under setting [1], 98 % of control; under setting [2], 97 % of control; under setting [3], 103 % of control; under setting [4], 98 % of control; under setting [5], 97 % of control.

Regarding `[N-]=[N+]=NC(=O)C1(Br)CCC2c3ccccc3C([N+](=O)[O-])(C1)c1ccccc12` (stereo not drawn), the T/C under setting [6] is 95 % of control; the T/C (dose: 200.0 mg/kg/injection, schedule: Q04DX003 (ip), vehicle: saline) was 100 % of control; the T/C under setting [7] is 109 % of control.

As for `O=C(O)CCC(=O)c1ccc(C2CCCCCC2)cc1`, the T/C by setting is: (dose: 50.0 mg/kg/injection, schedule: Q01DX009 (ip), vehicle: saline with Tween-80) 110 % of control; (dose: 100.0 mg/kg/injection, schedule: Q01DX009 (ip), vehicle: saline with Tween-80) 115 % of control; under setting [6], 95 % of control; (dose: 200.0 mg/kg/injection, schedule: Q01DX009 (ip), vehicle: saline with Tween-80) 110 % of control; under setting [7], 100 % of control.

For the compound `CC(C)OC(CCC#N)c1ccc(Cl)cc1` (stereo not drawn), the T/C runs as follows: (dose: 100.0 mg/kg/injection, schedule: Q04DX003 (ip), vehicle: other) 95 % of control; (dose: 400.0 mg/kg/injection, schedule: Q04DX003 (ip), vehicle: other) 95 % of control.

`Nc1nc(=S)c2[nH]c(N=Nc3ccc(S(N)(=O)=O)cc3)nc2[nH]1`: the T/C is 166 % of control under setting [8] and 156 % of control under setting [1].

On to `O=C(NO)c1ccncc1`, for which the T/C reads like this: (dose: 100.0 mg/kg/injection, schedule: Q01DX009 (ip), vehicle: saline) 120 % of control; (dose: 100.0 mg/kg/injection, schedule: Q01DX010 (ip), vehicle: water) 90 % of control; (dose: 132.0 mg/kg/injection, schedule: Q01DX009 (ip), vehicle: saline) 118 % of control; (dose: 200.0 mg/kg/injection, schedule: Q01DX006 (ip), vehicle: water) 90 % of control; (dose: 200.0 mg/kg/injection, schedule: Q01DX009 (ip), vehicle: saline) 118 % of control and 120 % of control; (dose: 200.0 mg/kg/injection, schedule: Q01DX010 (ip), vehicle: water) 118 % of control. The T/C reads like this: (dose: 200.0 mg/kg/injection, schedule: Q#A X020 (ip), vehicle: water) 100 % of control; (dose: 222.0 mg/kg/injection, schedule: Q01DX010 (ip), vehicle: water) 113 % of control; (dose: 222.0 mg/kg/injection, schedule: Q02DX005 (ip), vehicle: water) 113 % of control; (dose: 300.0 mg/kg/injection, schedule: Q01DX009 (ip), vehicle: saline) 118 % of control; (dose: 300.0 mg/kg/injection, schedule: Q#A X020 (ip), vehicle: water) 118 % of control; (dose: 335.0 mg/kg/injection, schedule: Q02DX005 (ip), vehicle: water) 109 % of control. The T/C by setting is: (dose: 400.0 mg/kg/injection, schedule: Q01DX006 (ip), vehicle: water) 90 % of control; (dose: 400.0 mg/kg/injection, schedule: Q01DX010 (ip), vehicle: water) 150 % of control; (dose: 500.0 mg/kg/injection, schedule: Q01DX001 (ip), vehicle: water) 109 % of control; (dose: 600.0 mg/kg/injection, schedule: Q01DX006 (ip), vehicle: water) 100 % of control; (dose: 600.0 mg/kg/injection, schedule: Q01DX010 (ip), vehicle: water) 154 % of control; (dose: 750.0 mg/kg/injection, schedule: Q01DX010 (ip), vehicle: water) 154 % of control. Besides, the T/C runs as follows: (dose: 750.0 mg/kg/injection, schedule: Q02DX005 (ip), vehicle: water) 163 % of control; (dose: 800.0 mg/kg/injection, schedule: Q01DX006 (ip), vehicle: water) 90 % of control; (dose: 1000.0 mg/kg/injection, schedule: Q01DX001 (ip), vehicle: water) 113 % of control; (dose: 1500.0 mg/kg/injection, schedule: Q01DX001 (ip), vehicle: water) 100 % of control.

For the compound `CC(=O)NC1CCCN(O)C(=O)/C=C(/C)CCOC(=O)C(NC(C)=O)CCCN(O)C(=O)/C=C(/C)CCOC(=O)C(NC(C)=O)CCCN(O)C(=O)/C=C(/C)CCOC1=O.[Fe]` (stereo not drawn), the T/C is 86 % of control under setting [9], 92 % of control under setting [10] and 99 % of control under setting [11].

In the case of `CC1=CC(OC2CCCCO2)C2CC1C2(C)C` (stereo not drawn), the T/C is 112 % of control under setting [3], 112 % of control under setting [4] and 104 % of control under setting [5].

As for `COc1ccc(/C=C(\CC(=O)O)C(=O)O)cc1OC`, the T/C was 100 % of control under setting [12]; 100 % of control under setting [3]; 109 % of control (dose: 200.0 mg/kg/injection, schedule: Q01DX009 (ip), vehicle: Klucel (hydroxypropylcellulose) (HPC)); 100 % of control under setting [4]; 95 % of control (dose: 400.0 mg/kg/injection, schedule: Q01DX009 (ip), vehicle: Klucel (hydroxypropylcellulose) (HPC)); 90 % of control under setting [5].

For the compound `C[C@]12CCC(=O)C=C1CC[C@@H]1[C@@H]2C(=O)C[C@]2(C)C3=CC(=O)O[C@H]3C[C@@H]12`, the T/C is 109 % of control and 110 % of control under setting [9]; 109 % of control under setting [8]; 118 % of control and 120 % of control under setting [10]; 113 % of control under setting [1]; 86 % of control and 115 % of control under setting [11]; 122 % of control under setting [2]. Also, under setting [12], the T/C is 90 % of control.

On to `CC1CN1c1cc(O)c(N2CC2C)cc1O` (stereo not drawn), for which the T/C is 154 % of control (dose: 1.32 mg/kg/injection, schedule: Q01DX009 (ip), vehicle: saline with Tween-80); 208 % of control (dose: 2.0 mg/kg/injection, schedule: Q01DX009 (ip), vehicle: saline with Tween-80); 200 % of control (dose: 2.2 mg/kg/injection, schedule: Q01DX009 (ip), vehicle: saline with Tween-80); 187 % of control (dose: 3.0 mg/kg/injection, schedule: Q01DX009 (ip), vehicle: saline with Tween-80); 265 % of control (dose: 3.3 mg/kg/injection, schedule: Q01DX009 (ip), vehicle: saline with Tween-80); 310 % of control and 204 % of control (dose: 5.0 mg/kg/injection, schedule: Q01DX009 (ip), vehicle: saline with Tween-80). Besides, the T/C (dose: 5.0 mg/kg/injection, schedule: Q04DX003 (ip), vehicle: saline with Tween-80) was 154 % of control; the T/C (dose: 7.5 mg/kg/injection, schedule: Q04DX003 (ip), vehicle: saline with Tween-80) was 231 % of control; the T/C (dose: 10.0 mg/kg/injection, schedule: Q01DX009 (ip), vehicle: saline with Tween-80) is 90 % of control.

On to `COc1cc([C@@H]2c3cc4c(cc3[C@H](O)[C@H]3COC(=O)[C@H]23)OCO4)cc(OC)c1OC`, for which the T/C is 118 % of control (dose: 1.0 mg/kg/injection, schedule: Q01DX010 (ip), vehicle: steriod suspending solution); 171 % of control (dose: 2.0 mg/kg/injection, schedule: Q01DX010 (ip), vehicle: carboxymethylcellulose (CMC)); 115 % of control (dose: 2.25 mg/kg/injection, schedule: Q01DX001 (ip), vehicle: other); 150 % of control (dose: 2.25 mg/kg/injection, schedule: Q01DX010 (ip), vehicle: other); 95 % of control (dose: 4.0 mg/kg/injection, schedule: Q01DX010 (ip), vehicle: carboxymethylcellulose (CMC)); 154 % of control (dose: 4.5 mg/kg/injection, schedule: Q01DX010 (ip), vehicle: other). Also, the T/C runs as follows: (dose: 9.0 mg/kg/injection, schedule: Q01DX001 (ip), vehicle: other) 115 % of control; (dose: 9.0 mg/kg/injection, schedule: Q01DX010 (ip), vehicle: other) 95 % of control.

`CC(C)OC(=S)SSc1nc2ccccc2s1`: the T/C was 115 % of control (dose: 9.37 mg/kg/injection, schedule: Q01DX009 (ip), vehicle: saline); 110 % of control (dose: 18.75 mg/kg/injection, schedule: Q01DX009 (ip), vehicle: saline); 112 % of control (dose: 75.0 mg/kg/injection, schedule: Q01DX009 (ip), vehicle: saline with Tween-80).
